According to patent EP4631938A1, “NITROGEN-CONTAINING HETEROCYCLE WITH SEROTONIN RECEPTOR-BINDING ACTIVITY AND CARBOCYCLIC DERIVATIVE” (Shionogi & Co., Ltd, priority 2022, dated 2024):

Key:
[1] = molecular target: T1, human recombinant 5-HT2C receptor (Homo sapiens, UniProt P28335); assay: Test Example 2: 5-HT2C receptor binding inhibition test ([3H]-Mesulergine; non-specific ligand Serotonin HCl)
T1 construct: expressed in transfected cells; host or cells: Jump-In HEK cells (membrane preparation)
T1 sequence (P28335 33-458): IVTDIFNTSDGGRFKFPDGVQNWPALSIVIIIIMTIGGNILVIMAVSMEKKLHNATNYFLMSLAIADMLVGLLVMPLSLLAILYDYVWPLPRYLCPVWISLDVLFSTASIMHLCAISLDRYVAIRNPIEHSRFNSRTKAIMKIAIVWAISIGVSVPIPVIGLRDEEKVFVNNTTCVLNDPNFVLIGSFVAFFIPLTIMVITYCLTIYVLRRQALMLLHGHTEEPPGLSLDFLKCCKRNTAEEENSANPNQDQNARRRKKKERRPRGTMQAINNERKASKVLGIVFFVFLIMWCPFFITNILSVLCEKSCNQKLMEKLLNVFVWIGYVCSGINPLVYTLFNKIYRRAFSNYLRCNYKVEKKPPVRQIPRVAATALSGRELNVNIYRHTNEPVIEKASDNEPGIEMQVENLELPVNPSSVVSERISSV
How it was run: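 Ki values come from dose-response curves of [3H]-mesulergine displacement from human 5-HT2C membranes after 2 h at 37°C, scored by scintillation counting of filter-bound radioactivity. Serotonin HCl (500 µmol/L) set non-specific binding; Kd per membrane lot was taken from Scatchard plots.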

[2] = molecular target: T2, human recombinant 5-HT2A receptor (Homo sapiens, UniProt P28223); assay: Test Example 1: 5-HT2A receptor binding inhibition test ([3H]-Ketanserin; non-specific ligand Serotonin HCl)
T2 construct: expressed in transfected cells; host or cells: Jump-In HEK cells (membrane preparation)
Method: The Kd value is calculated when the lot of the cell membrane is changed. 1 mmol/L non-specific binding calculating compound dissolved in DMSO or DMSO is previously dispensed to the microplate by 0.5 µL, and the cell membrane is diluted with an Assay buffer. The radioactive ligand solution is diluted step by step, and counts are checked with a liquid scintillator. The Assay buffer containing diluted cell membranes is dispensed by 50 µL/well into the microplate. The radioactive ligand solution is then dispensed by 50 µL/well into the microplate and the plate is sealed. The microplate is allowed to stand for 1.5 hours at room temperature (25°C). During this time, 50 mmol/L Tris-HCl (pH 7.4) is dispensed by 50 µL/well on the GF/B UniFilter plate and allowed to stand at 4°C for 1 hour or longer. Thereafter, filtration is performed with a Cell Harvester (PerkinElmer). The radioactive ligand solution is dispensed by 10 µL/well into empty wells of the GF/B UniFilter plate. After drying the GF/B UniFilter plate at room temperature, MicroScinti20 is dispensed by 50 µL/well into the GF/B UniFilter plate, and the plate is sealed. GF/B UniFilter plate is allowed to stand at room temperature overnight. The radioactivity of [^3H]-Ketanserin bound to the 5-HT2A receptor is measured using Microbeta2 (PerkinElmer) at a measurement time of 1 min/well. The Saturation curve is drawn from the measured value, and the Kd value is calculated from the slope of the Scatchard Plot.
A compound solution dissolved in DMSO is dispensed to a microplate by 0.5 µL, and a cell membrane and a hot ligand are each diluted with an Assay buffer. The Assay buffer containing diluted cell membrane is then dispensed by 50 µL/well into the microplate. The radioactive ligand solution is then dispensed by 50 µL/well into the microplate and the plate is sealed. Thereafter, the microplate is allowed to stand at room temperature (25°C) for 1.5 hours. During this time, 50 mmol/L Tris-HCl (pH 7.4) is dispensed by 50 µL/well into the GF/B UniFilter plate and allowed to stand at 4°C for 1 hour or longer. Thereafter, filtration is performed with a Cell Harvester (PerkinElmer). After drying the GF/B UniFilter plate at room temperature, MicroScinti20 is dispensed by 50 µL/well into the GF/B UniFilter plate, and the plate is sealed. GF/B UniFilter plate is allowed to stand at room temperature overnight. The radioactivity of [^3H]-Ketanserin bound to the 5-HT2A receptor is measured using Microbeta2 (PerkinElmer) at a measurement time of 1 min/well. Non-specific binding is calculated from the radioactivity of [^3H]-Ketanserin in the presence of 500 µmol/L Serotonin HCl of unlabeled ligand, and total binding is calculated from the radioactivity of [^3H]-Ketanserin in the absence of the compound of the present invention (Vehicle). Finally, the Ki value is calculated from the dose-response curve.
(The binding activity of the compound according to the present invention is calculated from the following binding inhibition rate (%).) Inhibition rate (%) = [1−(c−a)/(b−a)] × 100 [formula] • a; average cpm of non-specific binding • b; average cpm of total binding • c; cpm in the presence of the test compound
The compounds of the present invention were tested essentially as described above.

[3] = molecular target: T2, human recombinant 5-HT2A receptor; assay: Test Example 1-2: 5-HT2A receptor binding inhibition test ([3H]-Ketanserin; non-specific ligand Ketanserin)
How it was run: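 Ki values were derived from dose-response inhibition of [3H]-ketanserin binding; nonspecific binding was set with 500 µmol/L ketanserin, and Kd was set for each membrane lot from Scatchard saturation plots. Incubation lasted 1.5 h at room temperature (25 °C). Bound radioligand was harvested on Tris-HCl (pH 7.4)-presoaked filters and counted.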

[4] = molecular target: T3, human ether-a-go-go related gene (hERG) channel (Homo sapiens, UniProt Q12809); assay: Test Example 3-2: hERG test (FluxORII thallium flux, FLIPR, 4000 cells/well); type: cell-based; settings: CHO cells expressing hERG channel, compound reacted for 10 minutes, 100% inhibition = E-4031 10.3 µmol/L
T3 construct: expressed in transfected cells; host or cells: CHO cells
Method: For the purpose of evaluating risk of an electrocardiogram QT interval prolongation of the compound of the present invention, effects of the compound are studied by evaluating the activity of potassium channel using CHO cells expressing human ether-a-go-go related gene (hERG) channel.
Evaluation is performed using a FluxORII Green Potassium Ion Channel Assay kit (Invitrogen: Molecular Probes).
Cells (4000 cells/well/40 µL) are seeded in a 384 assay plate, and are incubated overnight (37°C, 5% CO2). After replacing the medium with a Wash buffer (lxHBSS, 20 mM HEPES) with a microplate washer, a fluorescent indicator is added to the medium and allowed to incubate (37°C, 5% CO2) for 1 hour for incorporation of the fluorescent indicator into cells.
A cell plate is placed on a cell-based kinetic assay system FLIPR (Molecular Devices, LLC.), and the compound is added to the cells so as to have a desired concentration and reacted for 10 minutes. When a mixed solution of potassium and thallium as a stimulator is added thereto, the potassium channel is opened, and thallium that flowed into the cells binds to the fluorescent indicator, so that the intracellular fluorescence signal increases, and the potassium channel current is detected as a fluorescence signal. […] Then, the inhibition rate is calculated from the signal intensity at each concentration. IC50 is calculated from the inhibition rate at each concentration.

[5] = molecular target: T1, human recombinant 5-HT2C receptor; assay: Test Example 2-2: 5-HT2C receptor binding inhibition test ([3H]-Mesulergine; non-specific ligand Ketanserin); settings: non-specific binding with 500 µmol/L Ketanserin, 37°C, 2 hours
How it was run: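 Membranes expressing the receptor were incubated with compound and [3H]-Mesulergine for 2 h at 37 °C, then filtered and counted by scintillation. Non-specific binding was defined with 500 µmol/L Ketanserin. Percent inhibition versus vehicle gave dose-response curves, from which Ki was derived using a Kd from Scatchard saturation analysis.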

[6] = [3H]-Mesulergine, non-specific binding with 500 µmol/L Serotonin HCl, 37°C, 2 hours
[7] = [3H]-Ketanserin, non-specific binding with 500 µmol/L Serotonin HCl, room temperature (25°C), 1.5 hours, read-out: h 5-HT2A Ki
[8] = [3H]-Ketanserin, non-specific binding with 500 µmol/L Ketanserin, room temperature (25°C), 1.5 hours, read-out: h 5-HT2A Ki
[9] = human serotonin 5-HT2C receptor binding activity

T3 sequence (Q12809 whole entry): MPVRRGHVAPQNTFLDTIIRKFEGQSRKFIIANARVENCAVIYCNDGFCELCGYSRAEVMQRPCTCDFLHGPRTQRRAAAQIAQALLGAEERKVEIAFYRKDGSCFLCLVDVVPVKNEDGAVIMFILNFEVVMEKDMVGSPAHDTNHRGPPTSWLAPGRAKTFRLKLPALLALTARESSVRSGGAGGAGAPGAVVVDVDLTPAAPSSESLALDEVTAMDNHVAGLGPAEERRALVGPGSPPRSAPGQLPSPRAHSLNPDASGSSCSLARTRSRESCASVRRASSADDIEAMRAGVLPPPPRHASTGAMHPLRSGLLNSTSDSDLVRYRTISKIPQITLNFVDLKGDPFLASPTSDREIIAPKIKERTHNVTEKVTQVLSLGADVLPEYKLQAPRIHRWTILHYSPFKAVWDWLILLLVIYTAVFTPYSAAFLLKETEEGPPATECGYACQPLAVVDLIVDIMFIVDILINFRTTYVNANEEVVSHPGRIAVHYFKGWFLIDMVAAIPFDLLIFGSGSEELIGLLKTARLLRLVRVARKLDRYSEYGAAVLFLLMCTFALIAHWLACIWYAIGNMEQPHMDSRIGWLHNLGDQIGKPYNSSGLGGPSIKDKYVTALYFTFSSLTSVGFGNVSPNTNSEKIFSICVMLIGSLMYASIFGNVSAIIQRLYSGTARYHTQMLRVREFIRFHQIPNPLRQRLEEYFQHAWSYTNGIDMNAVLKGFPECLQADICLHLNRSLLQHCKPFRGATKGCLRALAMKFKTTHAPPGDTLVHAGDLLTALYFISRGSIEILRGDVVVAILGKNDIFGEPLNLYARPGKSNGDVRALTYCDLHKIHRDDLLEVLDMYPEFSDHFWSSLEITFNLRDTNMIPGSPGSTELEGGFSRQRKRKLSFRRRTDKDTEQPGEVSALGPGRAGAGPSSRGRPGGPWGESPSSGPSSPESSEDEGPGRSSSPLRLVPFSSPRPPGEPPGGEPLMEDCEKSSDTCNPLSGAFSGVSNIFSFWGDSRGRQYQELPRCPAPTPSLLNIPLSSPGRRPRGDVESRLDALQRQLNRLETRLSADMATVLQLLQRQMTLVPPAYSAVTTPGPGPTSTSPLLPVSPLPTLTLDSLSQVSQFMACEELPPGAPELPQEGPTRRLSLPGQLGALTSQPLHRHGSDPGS
T2 sequence (P28223 whole entry): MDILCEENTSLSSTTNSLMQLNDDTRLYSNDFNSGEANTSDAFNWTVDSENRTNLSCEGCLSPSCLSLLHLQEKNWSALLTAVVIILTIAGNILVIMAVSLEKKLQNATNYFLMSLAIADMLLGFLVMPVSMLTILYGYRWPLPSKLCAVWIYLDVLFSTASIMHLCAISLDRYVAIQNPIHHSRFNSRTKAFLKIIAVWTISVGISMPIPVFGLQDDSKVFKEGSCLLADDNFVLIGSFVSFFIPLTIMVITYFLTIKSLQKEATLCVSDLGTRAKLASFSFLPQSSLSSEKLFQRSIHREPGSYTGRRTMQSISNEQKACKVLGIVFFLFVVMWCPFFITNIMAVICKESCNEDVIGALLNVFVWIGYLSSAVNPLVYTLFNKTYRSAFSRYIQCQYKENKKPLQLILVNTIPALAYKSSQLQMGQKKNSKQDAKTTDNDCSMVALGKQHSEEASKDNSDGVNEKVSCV

SMILES	Ki [3, 8]	Ki [5]	also measured
Cn1ncc(Br)c1-c1cc(Nc2ccc(F)cc2)ccc1OCCO [Compound I-003]	–	–	Ki [1, 6]: 11.4 nM; Ki [2, 7]: 0.597 nM
Cc1nc(C)c(-c2nc(Nc3ccc(C(F)(F)F)cc3)c(F)cc2OCCO)c(C)n1 [Compound I-267]	0.465 nM	–	Ki [1, 9]: 0.786 nM; IC50 [4]: > 52000 nM
Cn1ncc(Br)c1-c1cc(Nc2ccc(C(F)(F)F)nc2)ccc1OCCO [I-002]	–	–	Ki [1, 6]: 19.2 nM; Ki [2]: 0.375 nM
Cn1ncc(Br)c1-c1cc(Nc2ncc(C(F)(F)F)cc2F)ncc1OC(F)(F)CO [Compound I-228]	0.316 nM	–	Ki [1, 9]: 0.748 nM; IC50 [4]: 50600 nM
Cn1ncc(Br)c1-c1cc(Nc2ccc(C(F)(F)F)cc2)ccc1OCCO [Compound I-001]	–	–	Ki [1, 6]: 1.44 nM; Ki [2, 7]: 0.447 nM
Cn1ncc(Br)c1-c1cc(Nc2ccc(C(F)(F)F)cn2)ccc1OCCO [Compound I-004]	–	–	Ki [1, 6]: 0.387 nM; Ki [2, 7]: 0.42 nM
Cc1nc(C)c(-c2cc(Nc3ccc(-c4ccc(F)cc4)cn3)cnc2O[C@H](C)CO)c(C)n1 [Compound I-271]	0.4 nM	–	Ki [1, 9]: 3.92 nM; IC50 [4]: > 52000 nM
Cn1nccc1-c1cc(Nc2ncc(C(F)(F)F)cc2F)ccc1OCCO [Compound I-009]	–	–	Ki [1, 6]: 8.7 nM; Ki [2, 7]: 0.337 nM
Cn1ncc(Br)c1-c1cc(Nc2ncc(C(F)(F)F)s2)ccc1OCCO [Compound I-005]	–	–	Ki [1, 6]: 1.08 nM; Ki [2, 7]: 0.301 nM
Cn1ncc(Br)c1-c1cc(Nc2ccc(C(F)(F)F)nn2)ccc1OCCO [Compound I-007]	–	–	Ki [1, 6]: 14.9 nM; Ki [2, 7]: 0.548 nM
Cn1ncc(Cl)c1-c1cc(Nc2ncc(C(F)(F)F)cc2F)ncc1OCCO [Compound I-115]	0.265 nM	0.818 nM	–
Cn1ncc(Br)c1-c1cc(Nc2nc3ccc(F)cc3s2)ccc1OCCO [Compound I-070]	0.302 nM	0.213 nM	–
Cn1ncc(Br)c1-c1cc(Nc2ccc(Cl)cn2)ccc1OCCO [Compound I-090]	0.203 nM	0.575 nM	–
Cn1ncc(Br)c1-c1cc(Nc2nc(C(F)(F)F)cs2)ccc1OCCO [Compound I-036]	0.344 nM	1.92 nM	–
Cn1ncc(Br)c1-c1cc(Nc2nc3cc(Br)ccc3n2C)ccc1OCCO [Compound I-084]	0.442 nM	0.297 nM	–
Cn1ncc(Br)c1-c1cc(Nc2ncc(C#N)s2)ccc1OCCO [Compound I-037]	0.289 nM	1.4 nM	–
Cc1nc(C)c(-c2cc(Nc3ccc(C(F)(F)F)cn3)ccc2OCCO)c(C)n1 [Compound I-122]	0.485 nM	1.38 nM	–
Cn1ncc(Br)c1-c1cc(Nc2nc3ccccc3s2)cnc1OCCO [Compound I-118]	0.262 nM	0.596 nM	–
Cn1ncc(Br)c1-c1cc(Nc2nc3ccc(Cl)cc3s2)ccc1OCCO [I-064]	–	0.18 nM	Ki [3]: 0.327 nM
Cn1ncc(Br)c1-c1cc(Nc2ncc(Cl)cc2F)c(F)cc1OCCO [Compound I-152]	0.354 nM	0.52 nM	–
Cn1ncc(Br)c1-c1cc(Nc2ccc(Cl)cn2)cnc1OCCO [Compound I-116]	0.325 nM	0.745 nM	–
Cc1cc(OCCO)c(-c2c(C#N)cnn2C)cc1Nc1ncc(C(F)(F)F)cc1F [Compound I-107]	1.67 nM	99.3 nM	–
Cc1ccncc1-c1cc(Nc2ncc(C(F)(F)F)cc2F)ccc1OCCO [Compound I-024]	0.607 nM	7.35 nM	–
C#Cc1cnn(C)c1-c1cc(Nc2ncc(C(F)(F)F)cc2F)ccc1OCCO [I-058]	–	0.456 nM	Ki [3]: 0.418 nM
Cn1ncc(F)c1-c1cc(Nc2ncc(Cl)cc2F)cnc1OCCO [Compound I-139]	0.431 nM	7.73 nM	–
Cn1ncc(Br)c1-c1cc(Nc2ccc(C3CCC3)cn2)ccc1OCCO [Compound I-093]	0.283 nM	0.325 nM	–
Cn1ncc(Br)c1-c1cc(Nc2ncc(Cl)s2)ccc1OCCO [Compound I-040]	0.175 nM	1.16 nM	–
Cn1nccc1-c1cc(Nc2ncc(C(F)(F)F)cc2F)ncc1OCCO [Compound I-059]	0.45 nM	30 nM	–
Cc1ncnc(C)c1-c1cc(Nc2ccc(C(F)(F)F)cn2)ccc1OCCO [Compound I-100]	0.27 nM	6.82 nM	–
